Experimental data taken from publication PMC11729362, “Icariside II Preparation from Icariin Separated from Epimedium Herbal Extract Powder by a Special Icariin Glycosidase” (Journal of Microbiology and Biotechnology, 2024).

Tested on: T1, special icariin glycosidase
T1 construct: gene icariin 7-O-glucosidase; native enzyme purified from culture supernatant (methanol precipitation, DEAE-cellulose DE-52); about 75 kDa by SDS-PAGE
Experiment: Lineweaver-Burk; HPLC and TLC of products and substrate
Format: biochemical, Aspergillus sp. y48
Conditions: 45 °C, 9 h reaction, 0.4-2.0 mmol/L icariin; purified free enzyme

- Km: 3.55 mM
SMILES: COc1ccc(-c2oc3c(CC=C(C)C)c(O[C@@H]4O[C@H](CO)[C@@H](O)[C@H](O)[C@H]4O)cc(O)c3c(=O)c2O[C@@H]2O[C@@H](C)[C@H](O)[C@@H](O)[C@H]2O)cc1 [icariin]
